Laboratory results: ChEMBL document CHEMBL1201862, “PubChem BioAssay data set” (2004)
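Five compound concentrations were applied to cells in 96-well plates for 48 hours; endpoints were derived by simple linear interpolation of the resulting dose-response curve. GI50 is the concentration that inhibits growth by half.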 Active and inactive are the calls of the source. No stated cut-off is given here; in the data, active = GI50 up to about 1.1 µM and inactive = higher.

Tests used:
Experiment in all cases: inhibition of tumour cell growth, NCI panel, 48 h
A498 = test system: A498
COLO 205 = test system: COLO 205
EKVX = test system: EKVX
HOP-62 = test system: HOP-62
HOP-92 = test system: HOP-92
HT-29 = test system: HT-29
K562 = test system: K562
LOX IMVI = test system: LOX IMVI
M14 = test system: M14
Malme-3M = test system: Malme-3M
NCI-H460 = test system: NCI-H460
OVCAR-8 = test system: OVCAR-8
RPMI-8226 = test system: RPMI-8226
SF-268 = test system: SF-268
SK-MEL-28 = test system: SK-MEL-28
SNB-75 = test system: SNB-75
SW-620 = test system: SW-620
U-251 = test system: U-251
OVCAR-4 = test system: OVCAR-4

Row | SMILES | GI50 (A498) | GI50 (COLO 205) | GI50 (EKVX) | GI50 (HOP-62) | GI50 (HOP-92) | GI50 (HT-29) | GI50 (K562) | GI50 (LOX IMVI) | GI50 (M14) | GI50 (Malme-3M) | GI50 (NCI-H460) | GI50 (OVCAR-8) | GI50 (RPMI-8226) | GI50 (SF-268) | GI50 (SK-MEL-28) | GI50 (SNB-75) | GI50 (SW-620) | GI50 (U-251) | GI50 (OVCAR-4)
1 | COc1ccc(/C(Cl)=C(\C=O)c2ccc(Cl)c(Cl)c2)cc1 | 20.4 µM (inactive) | 18.8 µM (inactive) | 17.1 µM (inactive) | 13.3 µM (inactive) | 6.07 µM (inactive) | 4.37 µM (inactive) | 4.04 µM (inactive) | 3.72 µM (inactive) | 13.7 µM (inactive) | 16.1 µM (inactive) | 5.25 µM (inactive) | 5.57 µM (inactive) | 2.56 µM (inactive) | 5.3 µM (inactive) | 14.4 µM (inactive) | 3.04 µM (inactive) | 4.53 µM (inactive) | 5.66 µM (inactive) | –
2 | CC(=O)NC1CC2Oc3ccc(C)cc3C(C)(O2)C1O (stereo not drawn) | – | > 100 µM (inactive) | > 100 µM (inactive) | > 100 µM (inactive) | – | > 100 µM (inactive) | > 100 µM (inactive) | > 100 µM (inactive) | > 100 µM (inactive) | > 100 µM (inactive) | > 100 µM (inactive) | > 100 µM (inactive) | > 100 µM (inactive) | – | > 100 µM (inactive) | > 100 µM (inactive) | > 100 µM (inactive) | > 100 µM (inactive) | –
3 | O=C(Nc1ccc(F)cc1)c1cc2c(cc1Cl)Sc1nccn1S2(=O)=O | 23.7 µM (inactive) | > 100 µM (inactive) | > 100 µM (inactive) | 34.8 µM (inactive) | – | > 100 µM (inactive) | > 100 µM (inactive) | > 100 µM (inactive) | > 100 µM (inactive) | > 100 µM (inactive) | 33.5 µM (inactive) | 85.9 µM (inactive) | – | 37.3 µM (inactive) | 88.5 µM (inactive) | 17.8 µM (inactive) | > 100 µM (inactive) | 16.3 µM (inactive) | 55.7 µM (inactive)
4 | CC(=O)O/C=C(/C=C/OC(C)=O)C(C/C=C(\C)C#CC=C(C)C)OC(C)=O (stereo not drawn) | > 100 µM (inactive) | 27.9 µM (inactive) | 93.5 µM (inactive) | > 100 µM (inactive) | 36.6 µM (inactive) | 30.7 µM (inactive) | 21 µM (inactive) | 26.1 µM (inactive) | 34.1 µM (inactive) | 72.6 µM (inactive) | > 100 µM (inactive) | 37 µM (inactive) | 25.8 µM (inactive) | > 100 µM (inactive) | – | – | 42.3 µM (inactive) | 38.5 µM (inactive) | 38.4 µM (inactive)
5 | O=C(NCCCOC(=O)CCCCCCCCC(=O)OCCCNC(=O)NC(=O)c1c[nH]c(=O)[nH]c1=O)NC(=O)c1c[nH]c(=O)[nH]c1=O | > 100 µM (inactive) | > 100 µM (inactive) | > 100 µM (inactive) | > 100 µM (inactive) | > 100 µM (inactive) | – | > 100 µM (inactive) | > 100 µM (inactive) | > 100 µM (inactive) | > 100 µM (inactive) | > 100 µM (inactive) | > 100 µM (inactive) | > 100 µM (inactive) | > 100 µM (inactive) | > 100 µM (inactive) | – | > 100 µM (inactive) | > 100 µM (inactive) | > 100 µM (inactive)
6 | CC(C)OP(=O)(OC(C)C)c1nc(-c2ccccc2)n(-c2ccc([N+](=O)[O-])cc2)n1 | > 100 µM (inactive) | > 100 µM (inactive) | > 100 µM (inactive) | > 100 µM (inactive) | > 100 µM (inactive) | > 100 µM (inactive) | 85.5 µM (inactive) | – | > 100 µM (inactive) | > 100 µM (inactive) | > 100 µM (inactive) | > 100 µM (inactive) | > 100 µM (inactive) | > 100 µM (inactive) | > 100 µM (inactive) | > 100 µM (inactive) | > 100 µM (inactive) | > 100 µM (inactive) | > 100 µM (inactive)
7 | CCN1CCC(O)(c2ccc(Oc3ccc(C)cc3)cc2)C(C(=O)c2ccc(Oc3ccc(C)cc3)cc2)C1 (stereo not drawn) | 0.426 µM (active) | 12.1 µM (inactive) | 15.6 µM (inactive) | 15.2 µM (inactive) | 10 µM (inactive) | 3.33 µM (inactive) | 2.95 µM (inactive) | 3.69 µM (inactive) | 7.43 µM (inactive) | 14.6 µM (inactive) | 3.28 µM (inactive) | 13.7 µM (inactive) | 1.48 µM (inactive) | 17 µM (inactive) | 11.2 µM (inactive) | 7.16 µM (inactive) | 12.9 µM (inactive) | 11.6 µM (inactive) | 1.94 µM (inactive)
8 | COC1CC(OC2CCC3(C)C(=CCC4C3C(OC(C)=O)C(OC(=O)CC(C)C)C3(C)C(C(C)=O)CCC43O)C2)OC(C)C1OC1CC(OC)C(OC2CC(OC)C(OC3OC(C)C(OC4OC(CO)C(O)C(O)C4O)C(OC)C3O)C(C)O2)C(C)O1 (stereo not drawn) | > 75 µM (inactive) | > 75 µM (inactive) | > 75 µM (inactive) | 11.6 µM (inactive) | > 75 µM (inactive) | > 75 µM (inactive) | > 75 µM (inactive) | > 75 µM (inactive) | > 75 µM (inactive) | – | > 7.5 µM (inactive) | > 75 µM (inactive) | > 75 µM (inactive) | > 75 µM (inactive) | > 75 µM (inactive) | > 75 µM (inactive) | > 75 µM (inactive) | > 75 µM (inactive) | > 75 µM (inactive)
9 | CCOC(=O)C(=C=C=C(c1ccccc1)c1ccccc1)C(=O)OCC | 48.4 µM (inactive) | 16.7 µM (inactive) | 26.7 µM (inactive) | 18.9 µM (inactive) | 15.1 µM (inactive) | 19.4 µM (inactive) | 11.3 µM (inactive) | 17.1 µM (inactive) | 20.6 µM (inactive) | 19.8 µM (inactive) | 22.8 µM (inactive) | 21.9 µM (inactive) | 14.1 µM (inactive) | 25.8 µM (inactive) | 17.4 µM (inactive) | 3.87 µM (inactive) | 21.5 µM (inactive) | 17.3 µM (inactive) | 18.3 µM (inactive)
10 | Cc1ccc(P(c2ccc(C)cc2)c2ccc(C)cc2)cc1 | 27.1 µM (inactive) | 14.5 µM (inactive) | 28.3 µM (inactive) | – | 5.66 µM (inactive) | 19.4 µM (inactive) | 4.83 µM (inactive) | 14.9 µM (inactive) | 19.3 µM (inactive) | 18.3 µM (inactive) | 12.9 µM (inactive) | 18 µM (inactive) | 6.05 µM (inactive) | 24.3 µM (inactive) | 24.5 µM (inactive) | 15.2 µM (inactive) | 26.2 µM (inactive) | 14.3 µM (inactive) | 19.8 µM (inactive)
11 | COc1ccc2c(c1)CCCN2CCCCCCCCCCN(CCC(C)C)CCC(C)C | 16.7 µM (inactive) | 12.1 µM (inactive) | 6.44 µM (inactive) | 13.1 µM (inactive) | 4.34 µM (inactive) | 4.65 µM (inactive) | 4.24 µM (inactive) | 12.4 µM (inactive) | 13.3 µM (inactive) | 13.4 µM (inactive) | 11.2 µM (inactive) | – | 2.26 µM (inactive) | 11.6 µM (inactive) | 13.6 µM (inactive) | – | 12.6 µM (inactive) | 13.2 µM (inactive) | 5.61 µM (inactive)
12 | COc1ccccc1CC(C)N (stereo not drawn) | > 100 µM (inactive) | > 100 µM (inactive) | > 100 µM (inactive) | > 100 µM (inactive) | > 100 µM (inactive) | > 100 µM (inactive) | > 100 µM (inactive) | > 100 µM (inactive) | > 100 µM (inactive) | > 100 µM (inactive) | > 100 µM (inactive) | > 100 µM (inactive) | > 100 µM (inactive) | > 100 µM (inactive) | > 100 µM (inactive) | > 100 µM (inactive) | > 100 µM (inactive) | > 100 µM (inactive) | > 100 µM (inactive)
13 | CC1NCCc2c1[nH]c1cc(O)ccc21 (stereo not drawn) | > 100 µM (inactive) | > 100 µM (inactive) | > 100 µM (inactive) | > 100 µM (inactive) | > 100 µM (inactive) | > 100 µM (inactive) | > 100 µM (inactive) | > 100 µM (inactive) | > 100 µM (inactive) | > 100 µM (inactive) | > 100 µM (inactive) | > 100 µM (inactive) | > 100 µM (inactive) | > 100 µM (inactive) | > 100 µM (inactive) | > 100 µM (inactive) | > 100 µM (inactive) | – | > 100 µM (inactive)
14 | CCOC(=O)C1Nc2ccc([N+](=O)[O-])cc2[C@H]2OCC[C@@H]12 (stereo partly drawn) | > 100 µM (inactive) | > 100 µM (inactive) | > 100 µM (inactive) | > 100 µM (inactive) | – | > 100 µM (inactive) | > 100 µM (inactive) | > 100 µM (inactive) | > 100 µM (inactive) | > 100 µM (inactive) | > 100 µM (inactive) | > 100 µM (inactive) | – | > 100 µM (inactive) | > 100 µM (inactive) | > 100 µM (inactive) | > 100 µM (inactive) | > 100 µM (inactive) | > 100 µM (inactive)
15 | Cc1nc(C)c(C(=O)NNC(=O)C[N+](C)(C)C)cc1C(=O)NNC(=O)C[N+](C)(C)C | > 100 µM (inactive) | > 100 µM (inactive) | > 100 µM (inactive) | > 100 µM (inactive) | > 100 µM (inactive) | > 100 µM (inactive) | – | > 100 µM (inactive) | > 100 µM (inactive) | – | > 100 µM (inactive) | > 100 µM (inactive) | – | > 100 µM (inactive) | > 100 µM (inactive) | > 100 µM (inactive) | > 100 µM (inactive) | > 100 µM (inactive) | > 100 µM (inactive)
